This is an account of results in patent publication US12655144B2, “Method for producing heterocyclic compound” (TAKEDA PHARMACEUTICAL COMPANY LIMITED, priority 2020, dated 2026).

One may read the inhibition as the drop in the measured response relative to a control, in per cent.

The test system of one assay is OCI-Ly3 cells. Put plainly: Measurement of growth inhibitory activity using OCI-Ly3 cells. Format: cell-based. Conditions: Homo sapiens, 144 h, 3 μM compound, 6 days, Cell Titer-Glo, read-out: Cell growth inhibition rate (%) at 3 μM compound. As to the method: Measurement of Growth Inhibitory Activity Using OCI-Ly3 Cells
OCI-Ly3 cells were seeded in a cell culture medium IMDM (Fujifilm Wako Pure Chemical Corporation) containing 20% FCS (fetal calf serum, Thermo Fisher Scientific) and monothioglycerol (Fujifilm Wako Pure Chemical Corporation) so as to be at 1.25×10^3 cells/well on a 96-well plate. […] Subsequently, the luminescence value was measured with Envision (PerkinElmer) on the day of seeding. […] Subsequently, the luminescence value was measured in the same manner. The inhibition rate (%) of the test compound on OCI-Ly3 cell growth was calculated by the following formula. Cell growth inhibition rate (%)=(1−(Luminescent value on day 6 of test compound treatment−Luminescent value before test compound treatment)/(Luminescent value on day 6 without compound addition−Luminescent value before compound treatment))×100
For orientation: ATP-based viability assays read luminescence as a measure of living cells.

Assay [1] deals with OCI-Ly3 subcutaneously transplanted tumor. Put plainly: Antitumor effect on OCI-Ly3 cell-bearing cancer model. The assay is classed as in vivo, NOG female mice. Conditions: 10 mg/kg orally twice daily for 3 weeks; average tumor volume increase ratio vs control; NOG mice bearing OCI-Ly3.
Protocol: Antitumor Effect on OCI-Ly3 Cell-Bearing Cancer Model Human diffuse large-cell B-cell lymphoma cells OCI-Ly3 (DSMZ, German Collection of Microorganisms and Cell Cultures) were suspended in a Matrigel (BD Biosciences):HBSS (Thermo Fisher Scientific)=1:1 solution, and 1×10^7 cells were transplanted subcutaneously into the abdomen of NOG female mice (CLEA Japan, Inc.). The tumor diameter of the engrafted tumor was measured, and the tumor volume was calculated by the following formula. Tumor volume=major axis×minor axis×minor axis×(1/2) Individuals with the engrafted tumor having a tumor volume of about 120 mm^3 were selected, and 6 animals per group were used in the experiment. A suspension of the test compound in 0.5% methylcellulose solution (Fujifilm Wako Pure Chemical Corporation) was orally administered at a dose of 10 mg/kg (10 mL/kg) twice daily for 3 weeks. The tumor volume was measured on the day before the start of administration and every 3 to 4 days over time, and the tumor diameter was finally measured the day after the end of administration for 21 days to calculate the tumor volume. The tumor growth of the test compound-administered group compared with the control-administered group was calculated by the following formula as an average tumor volume increase ratio T/C. […]

`CO[C@@H](C)c1c(NC(=O)Nc2cnc(-n3nccn3)c(C(F)(F)F)c2)cnc2ccc(C)nc12` [Compound X2, (S)—N-(4-(1-methoxyethyl)-6-methyl-1,5-naphthyridine-3-yl)-N′-(6-(2H-1,2,3-triazole-2-yl)-5-(trifluoromethyl)pyridine-3-yl)urea]: in the assay with OCI-Ly3 cells, the inhibition at 3 µM is 99%. Further, in assay [1], the “T/C (%)” value turned out to be 38.7%.
With `CO[C@@H](C)c1c(NC(=O)Nc2cnc(-n3nccn3)c(C(F)(F)F)c2)cnc2ccc(Cl)nc12` [Compound X1, (S)—N-(6-Chloro-4-(1-methoxyethyl)-1,5-naphthyridine-3-yl)-N′-(6-(2H-1,2,3-triazole-2-yl)-5-(trifluoromethyl)pyridine-3-yl)urea], in the assay on OCI-Ly3 cells, the inhibition at 3 µM turned out to be 97%. Further, the “T/C (%)” value in assay [1] is on record as 2.0%.
